≈ marks a conversion by molar mass, not a printed value. Where two headings read alike, the source gives them in different places.
What was measured:
P. aeruginosa CDC-0054 = assay: microbe, parasite or virus in culture; assay type: cell-based; settings: Pseudomonas aeruginosa, CDC0054, read-out: Minimum inhibitory concentration, P. aeruginosa CDC-0054
N. gonorrhoeae WHO M = assay: Liquid broth MIC in Fastidious broth; settings: Neisseria gonorrhoeae
[1] = molecular target: T1, PBP3 from Pseudomonas aeruginosa (PAO1) (Pseudomonas aeruginosa, UniProt G3XD46); assay: Bocillin-FL fluorescence polarization competition binding, P. aeruginosa PBP3; settings: Binding affinity to P. aeruginosa PBP3; fluorescence polarization competition binding assay using Bocillin-FL; read-out: P. aeruginosa PBP3 Potency
T1 construct: made in house
T1 sequence (G3XD46 whole entry): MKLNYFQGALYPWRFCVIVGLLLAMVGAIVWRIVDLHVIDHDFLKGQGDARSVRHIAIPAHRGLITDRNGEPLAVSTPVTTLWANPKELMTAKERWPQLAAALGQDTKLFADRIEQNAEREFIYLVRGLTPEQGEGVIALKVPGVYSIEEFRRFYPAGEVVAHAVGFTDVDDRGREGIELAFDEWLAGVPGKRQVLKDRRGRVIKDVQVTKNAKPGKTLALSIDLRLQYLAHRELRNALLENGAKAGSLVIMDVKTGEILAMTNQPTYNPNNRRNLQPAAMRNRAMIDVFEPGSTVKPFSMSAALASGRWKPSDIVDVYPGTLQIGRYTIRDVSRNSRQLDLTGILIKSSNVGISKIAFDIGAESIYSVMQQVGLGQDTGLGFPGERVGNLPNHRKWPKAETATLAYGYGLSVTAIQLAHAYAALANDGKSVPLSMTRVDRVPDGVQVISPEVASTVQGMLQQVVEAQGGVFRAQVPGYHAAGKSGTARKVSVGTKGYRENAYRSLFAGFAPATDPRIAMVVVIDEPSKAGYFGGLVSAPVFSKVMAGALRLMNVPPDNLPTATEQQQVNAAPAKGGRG
Procedure, shortened: (§1)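 Purified PBPs pre-incubated with inhibitor (E. coli PBP3 1.5 μM, 30 min; P. aeruginosa PBP3 0.75 μM, A. baumannii PBP1a 1 μM and PBP3 0.2 μM, 15 min), then Bocillin-FL 0.1 μM (0.05 μM for PBP1a) added; FP read up to 60 min. EC50 = concentration halving bound Bocillin-FL.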

N. gonorrhoeae WHO G = assay: Liquid broth MIC in Fastidious broth; settings: Neisseria gonorrhoeae
[2] = test system: N. gonorrhoeae ATCC 49226; assay: Liquid broth MIC in Fastidious broth; settings: Neisseria gonorrhoeae
N. gonorrhoeae FA1090 = assay: Liquid broth MIC in Fastidious broth; settings: Neisseria gonorrhoeae
N. gonorrhoeae WHO Z = assay: Liquid broth MIC in Fastidious broth; settings: Neisseria gonorrhoeae
Description: Additional antibacterial testing of the series was performed in 8 reference strains of N. gonorrhoeae (ATCC 49226, FA1090, MS 11, WHO G, WHO L, WHO M, WHO K, WHO X, WHO Z, WHO Q, CDC-0197). ATCC 49226, FA1090, MS11, WHO G, WHO L, and WHO M produce wild type or wild-type like PBP2. WHO K, WHO X, WHO Z, WHO Q, and CDC-0197 produce mosaic PBP2. Liquid broth-based assays were used for antibacterial testing of PBP inhibitors in Neisseria gonorrhoeae. Briefly, cryo-preserved bacterial cultures of clinical strains were streaked for isolation on Chocolate Agar (72 g/L (2×) GC Agar Base (BD #228950) and 2% (2×) Hemoglobin was autoclaved at 121° C. for 20 minutes to sterilize. Once cooled to ˜50° C. the 2×GC Agar Base and 2× Hemoglobin solutions are combined and 1% IsoVitaleX Enrichment (BD #211876) was added to the solution). Strains were incubated at 36° C. and 5% CO2 to allow growth of colonies, 24 hours before inoculum preparation. 2-fold serial dilutions of test compounds were conducted in a 96 well plate with a final volume of 75 μL per well at 2-fold the final desired concentration in Fastidious broth (Remel #R07664). For preparation of assay inoculum, a direct suspension was prepared by aseptically swabbing 10-15 colonies from agar plates into culture tubes containing 2 mL of fresh sterile saline. After the dilution plates were set up, direct suspensions were then diluted in a cuvette containing sterile saline and the optical density was measured at 600 nm. Inocula were diluted such that 75 μL of this culture in Fastidious broth results in a starting bacterial concentration of 5×10^5 CFU/mL when added to the dilution plates. The plates were incubated for ˜24 hours at 36° C. and 5% CO2.

A. baumannii CDC-0033 = assay: microbe, parasite or virus in culture; assay type: cell-based; settings: Acinetobacter baumannii, CDC0033, read-out: MIC, A. baumannii CDC-0033
N. gonorrhoeae MS11 = assay: Liquid broth MIC in Fastidious broth; settings: Neisseria gonorrhoeae
P. aeruginosa CDC-0095 = assay: microbe, parasite or virus in culture; assay type: cell-based; settings: Pseudomonas aeruginosa, CDC0095, read-out: Minimum inhibitory concentration, P. aeruginosa CDC-0095
[3] = molecular target: T2, PBP3 from Escherichia coli (K-12) (Escherichia coli, UniProt P0AD68); assay: Bocillin-FL fluorescence polarization competition binding, E. coli PBP3
T2 construct: made in house
T2 sequence (P0AD68 1-577): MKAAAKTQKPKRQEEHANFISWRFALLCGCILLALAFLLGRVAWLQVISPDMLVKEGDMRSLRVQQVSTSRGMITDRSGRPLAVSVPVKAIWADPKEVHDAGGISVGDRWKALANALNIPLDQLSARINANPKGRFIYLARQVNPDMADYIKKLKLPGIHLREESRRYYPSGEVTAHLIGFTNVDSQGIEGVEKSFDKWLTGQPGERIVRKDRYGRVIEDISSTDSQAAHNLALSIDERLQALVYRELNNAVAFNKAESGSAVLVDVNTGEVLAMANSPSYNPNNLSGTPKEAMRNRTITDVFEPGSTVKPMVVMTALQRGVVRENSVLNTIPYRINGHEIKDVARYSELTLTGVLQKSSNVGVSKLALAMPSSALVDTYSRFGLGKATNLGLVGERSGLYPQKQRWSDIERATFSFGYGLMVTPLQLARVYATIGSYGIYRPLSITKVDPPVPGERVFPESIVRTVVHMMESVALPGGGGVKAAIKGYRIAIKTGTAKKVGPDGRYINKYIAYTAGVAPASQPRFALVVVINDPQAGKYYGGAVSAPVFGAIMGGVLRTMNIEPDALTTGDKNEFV
Procedure, shortened: as §1

N. gonorrhoeae WHO K = assay: Liquid broth MIC in Fastidious broth; settings: Neisseria gonorrhoeae
[4] = read-out: Minimum Inhibitory Concentration (MIC), N. gonorrhoeae WHO M
[5] = read-out: Minimum Inhibitory Concentration (MIC), N. gonorrhoeae WHO G
[6] = ATCC49226, read-out: Minimum Inhibitory Concentration (MIC), N. gonorrhoeae ATCC 49226
[7] = FA1090, read-out: Minimum Inhibitory Concentration (MIC), N. gonorrhoeae FA 1090
[8] = read-out: Minimum Inhibitory Concentration (MIC), N. gonorrhoeae WHO Z
[9] = MS11, read-out: Minimum Inhibitory Concentration (MIC), N. gonorrhoeae MS11
[10] = read-out: Minimum Inhibitory Concentration (MIC), N. gonorrhoeae WHO K
[11] = read-out: Minimum Inhibitory Concentration, WHO M
[12] = read-out: Minimum Inhibitory Concentration, WHO G
[13] = ATCC49226, read-out: Minimum Inhibitory Concentration, ATCC 49226
[14] = FA1090, read-out: Minimum Inhibitory Concentration, FA 1090
[15] = read-out: Minimum Inhibitory Concentration, WHO Z
[16] = MS11, read-out: Minimum Inhibitory Concentration, MS11
[17] = read-out: Minimum Inhibitory Concentration, WHO K

| SMILES | MIC (P. aeruginosa CDC-0054) [µg/mL] | MIC (N. gonorrhoeae WHO M; [4]) [µg/mL] | IC50 [1] [µM] | MIC (N. gonorrhoeae WHO G; [5]) [µg/mL] | MIC [2, 6] [µg/mL] | MIC (N. gonorrhoeae FA1090; [7]) [µg/mL] | MIC (N. gonorrhoeae WHO Z; [8]) [µg/mL] | MIC (A. baumannii CDC-0033) [µg/mL] | MIC (N. gonorrhoeae MS11; [9]) [µg/mL] | MIC (P. aeruginosa CDC-0095) [µg/mL] | EC50 [3] [µM] | MIC (N. gonorrhoeae WHO K; [10]) [µg/mL] | MIC (N. gonorrhoeae WHO M; [11]) [µg/mL] | MIC (N. gonorrhoeae WHO G; [12]) [µg/mL] | MIC [2, 13] [µg/mL] | MIC (N. gonorrhoeae FA1090; [14]) [µg/mL] | MIC (N. gonorrhoeae WHO Z; [15]) [µg/mL] | MIC (N. gonorrhoeae MS11; [16]) [µg/mL] | MIC (N. gonorrhoeae WHO K; [17]) [µg/mL] |
| --- | --- | --- | --- | --- | --- | --- | --- | --- | --- | --- | --- | --- | --- | --- | --- | --- | --- | --- | --- |
| O=C(NCCN1CCN(C(=O)NC(C(=O)N[C@H]2Cc3ccc(F)c(C(=O)O)c3OB2O)c2cc(F)c(O)c(O)c2Cl)C(=O)C1=O)Nc1cccc(O)c1 (stereo partly drawn) [Example 220, (3R)-3-(2-(2-chloro-5-fluoro-3,4-dihydroxyphenyl)-2-(4-(2-(3-(3-hydroxyphenyl)ureido)ethyl)-2,3-dioxopiperazine-1-carboxamido)acetamido)-7-fluoro-2-hydroxy-3,4-dihydro-2H-benzo[e][1,2]oxaborinine-8-carboxylic acid] | 8 to 16 (≈ 10.5 to 21 µM) | 4 to 8 (≈ 5.26 to 10.5 µM) | < 10 | 4 to 8 (≈ 5.26 to 10.5 µM) | 16 to 32 (≈ 21 to 42.1 µM) | 1 to 2 (≈ 1.31 to 2.63 µM) | > 64 | 2 to 4 (≈ 2.63 to 5.26 µM) | 16 to 32 (≈ 21 to 42.1 µM) | 8 to 16 (≈ 10.5 to 21 µM) | < 10 | > 64 | – | – | – | – | – | – | – |
| O=C(CN1CCN(C(=O)N[C@@H](C(=O)N[C@H]2Cc3ccc(F)c(C(=O)O)c3OB2O)c2cc(F)c(O)c(O)c2Cl)C(=O)C1=O)NCc1ccncc1 [Example 239, (R)-3-((R)-2-(2-chloro-5-fluoro-3,4-dihydroxyphenyl)-2-(2,3-dioxo-4-(2-oxo-2-((pyridin-4-ylmethyl)amino)ethyl)piperazine-1-carboxamido)acetamido)-7-fluoro-2-hydroxy-3,4-dihydro-2H-benzo[e][1,2]oxaborinine-8-carboxylic acid] | 2 to 4 (≈ 2.74 to 5.47 µM) | 4 to 8 (≈ 5.47 to 10.9 µM) | < 10 | 4 to 8 (≈ 5.47 to 10.9 µM) | 16 to 32 (≈ 21.9 to 43.8 µM) | 1 to 2 (≈ 1.37 to 2.74 µM) | 16 to 32 (≈ 21.9 to 43.8 µM) | 8 to 16 (≈ 10.9 to 21.9 µM) | 16 to 32 (≈ 21.9 to 43.8 µM) | 2 to 4 (≈ 2.74 to 5.47 µM) | < 10 | > 64 | – | – | – | – | – | – | – |
| O=C(NCCCN1CCN(C(=O)NC(C(=O)N[C@H]2Cc3ccc(F)c(C(=O)O)c3OB2O)c2cc(F)c(O)c(O)c2Cl)C1=O)c1ccncc1 (stereo partly drawn) [Example 256, (3R)-3-(2-(2-chloro-5-fluoro-3,4-dihydroxyphenyl)-2-(3-(3-(isonicotinamido)propyl)-2-oxoimidazolidine-1-carboxamido)acetamido)-7-fluoro-2-hydroxy-3,4-dihydro-2H-benzo[e][1,2]oxaborinine-8-carboxylic acid] | 2 to 4 (≈ 2.79 to 5.58 µM) | – | < 10 | – | – | – | – | 2 to 4 (≈ 2.79 to 5.58 µM) | – | 2 to 4 (≈ 2.79 to 5.58 µM) | 10 to 50 | – | 16 to 32 (≈ 22.3 to 44.6 µM) | 16 to 32 (≈ 22.3 to 44.6 µM) | 16 to 32 (≈ 22.3 to 44.6 µM) | 4 to 8 (≈ 5.58 to 11.2 µM) | 16 to 32 (≈ 22.3 to 44.6 µM) | > 64 | > 64 |
| O=C(NCCN1CCN(C(=O)NC(C(=O)N[C@H]2Cc3ccc(F)c(C(=O)O)c3OB2O)c2cc(F)c(O)c(O)c2Cl)C1=O)Nc1cccc(O)c1 (stereo partly drawn) [Example 249, (3R)-3-(2-(2-chloro-5-fluoro-3,4-dihydroxyphenyl)-2-(3-(2-(3-(3-hydroxyphenyl)ureido)ethyl)-2-oxoimidazolidine-1-carboxamido)acetamido)-7-fluoro-2-hydroxy-3,4-dihydro-2H-benzo[e][1,2]oxaborinine-8-carboxylic acid] | 2 to 4 (≈ 2.73 to 5.46 µM) | – | < 10 | – | – | – | – | 2 to 4 (≈ 2.73 to 5.46 µM) | – | 32 to 64 (≈ 43.7 to 87.3 µM) | < 10 | – | 16 to 32 (≈ 21.8 to 43.7 µM) | 16 to 32 (≈ 21.8 to 43.7 µM) | 16 to 32 (≈ 21.8 to 43.7 µM) | 1 to 2 (≈ 1.36 to 2.73 µM) | 16 to 32 (≈ 21.8 to 43.7 µM) | 16 to 32 (≈ 21.8 to 43.7 µM) | > 64 |
| O=C(O)c1c(F)ccc2c1OB(O)[C@@H](NC(=O)C(NC(=O)N1CCN(S(=O)(=O)CCNC(=O)[C@@H]3CCCN3)C1=O)c1cc(F)c(O)c(O)c1Cl)C2 (stereo partly drawn) [Example 265, (3R)-3-(2-(2-chloro-5-fluoro-3,4-dihydroxyphenyl)-2-(2-oxo-3-((2-((S)-pyrrolidine-2-carboxamido)ethyl)sulfonyl)imidazolidine-1-carboxamido)acetamido)-7-fluoro-2-hydroxy-3,4-dihydro-2H-benzo[e][1,2]oxaborinine-8-carboxylic acid] | 2 to 4 (≈ 2.64 to 5.27 µM) | – | < 10 | – | – | – | – | 8 to 16 (≈ 10.5 to 21.1 µM) | – | 2 to 4 (≈ 2.64 to 5.27 µM) | 10 to 50 | – | 4 to 8 (≈ 5.27 to 10.5 µM) | 16 to 32 (≈ 21.1 to 42.2 µM) | 16 to 32 (≈ 21.1 to 42.2 µM) | 4 to 8 (≈ 5.27 to 10.5 µM) | 4 to 8 (≈ 5.27 to 10.5 µM) | 16 to 32 (≈ 21.1 to 42.2 µM) | > 64 |
| O=C(NCCCS(=O)(=O)N1CCN(C(=O)N[C@H](C(=O)N[C@H]2Cc3ccc(F)c(C(=O)O)c3OB2O)c2cc(F)c(O)c(O)c2Cl)C1=O)c1cccc(O)c1 [Example 270, (R)-3-((S)-2-(2-chloro-5-fluoro-3,4-dihydroxyphenyl)-2-(3-((3-(3-hydroxybenzamido)propyl)sulfonyl)-2-oxoimidazolidine-1-carboxamido)acetamido)-7-fluoro-2-hydroxy-3,4-dihydro-2H-benzo[e][1,2]oxaborinine-8-carboxylic acid] | > 128 | – | < 10 | – | – | – | – | 32 to 64 (≈ 40.2 to 80.4 µM) | – | > 128 | 50 to 250 | – | > 64 | > 64 | > 64 | 16 to 32 (≈ 20.1 to 40.2 µM) | > 64 | > 64 | > 64 |
| O=C(NCCCN1CCN(C(=O)N[C@@H](C(=O)N[C@H]2Cc3ccc(F)c(C(=O)O)c3OB2O)c2cc(F)c(O)c(O)c2Cl)C1=O)c1cccc(O)c1 [Example 255, (R)-3-((R)-2-(2-chloro-5-fluoro-3,4-dihydroxyphenyl)-2-(3-(3-(3-hydroxybenzamido)propyl)-2-oxoimidazolidine-1-carboxamido)acetamido)-7-fluoro-2-hydroxy-3,4-dihydro-2H-benzo[e][1,2]oxaborinine-8-carboxylic acid] | < 1 | – | < 10 | – | – | – | – | 2 to 4 (≈ 2.73 to 5.47 µM) | – | 2 to 4 (≈ 2.73 to 5.47 µM) | < 10 | – | 4 to 8 (≈ 5.47 to 10.9 µM) | 4 to 8 (≈ 5.47 to 10.9 µM) | 16 to 32 (≈ 21.9 to 43.7 µM) | 1 to 2 (≈ 1.37 to 2.73 µM) | 16 to 32 (≈ 21.9 to 43.7 µM) | 16 to 32 (≈ 21.9 to 43.7 µM) | > 64 |
| O=C(NCCCN1CCN(C(=O)N[C@H](C(=O)N[C@H]2Cc3ccc(F)c(C(=O)O)c3OB2O)c2cc(F)c(O)c(O)c2Cl)C1=O)c1ccccc1 [Example 252, (R)-3-((S)-2-(3-(3-benzamidopropyl)-2-oxoimidazolidine-1-carboxamido)-2-(2-chloro-5-fluoro-3,4-dihydroxyphenyl)acetamido)-7-fluoro-2-hydroxy-3,4-dihydro-2H-benzo[e][1,2]oxaborinine-8-carboxylic acid] | > 128 | – | > 250 | – | – | – | – | > 128 | – | > 128 | > 250 | – | > 64 | > 64 | > 64 | > 64 | > 64 | > 64 | > 64 |
| O=C(NCCN1CCN(C(=O)NC(C(=O)N[C@H]2Cc3ccc(F)c(C(=O)O)c3OB2O)c2cc(F)c(O)c(O)c2Cl)C1=O)c1ccncc1 (stereo partly drawn) [Example 245, (3R)-3-(2-(2-chloro-5-fluoro-3,4-dihydroxyphenyl)-2-(3-(2-(isonicotinamido)ethyl)-2-oxoimidazolidine-1-carboxamido)acetamido)-7-fluoro-2-hydroxy-3,4-dihydro-2H-benzo[e][1,2]oxaborinine-8-carboxylic acid] | 2 to 4 (≈ 2.85 to 5.69 µM) | 16 to 32 (≈ 22.8 to 45.5 µM) | < 10 | 16 to 32 (≈ 22.8 to 45.5 µM) | 16 to 32 (≈ 22.8 to 45.5 µM) | 4 to 8 (≈ 5.69 to 11.4 µM) | > 64 | 8 to 16 (≈ 11.4 to 22.8 µM) | 16 to 32 (≈ 22.8 to 45.5 µM) | 2 to 4 (≈ 2.85 to 5.69 µM) | 10 to 50 | > 64 | – | – | – | – | – | – | – |

Reference: patent US20240270762A1, “PENICILLIN-BINDING PROTEIN INHIBITORS” (priority 2021, published 2024)
